# Test results: article PMC3361267 (Journal of Medicinal Chemistry, 2012)
# Key:
# [1] = cited from earlier work
# [2] = target: T1, OATP1B3 (Homo sapiens, UniProt Q9NPD5)
# T1 sequence (Q9NPD5 1-702): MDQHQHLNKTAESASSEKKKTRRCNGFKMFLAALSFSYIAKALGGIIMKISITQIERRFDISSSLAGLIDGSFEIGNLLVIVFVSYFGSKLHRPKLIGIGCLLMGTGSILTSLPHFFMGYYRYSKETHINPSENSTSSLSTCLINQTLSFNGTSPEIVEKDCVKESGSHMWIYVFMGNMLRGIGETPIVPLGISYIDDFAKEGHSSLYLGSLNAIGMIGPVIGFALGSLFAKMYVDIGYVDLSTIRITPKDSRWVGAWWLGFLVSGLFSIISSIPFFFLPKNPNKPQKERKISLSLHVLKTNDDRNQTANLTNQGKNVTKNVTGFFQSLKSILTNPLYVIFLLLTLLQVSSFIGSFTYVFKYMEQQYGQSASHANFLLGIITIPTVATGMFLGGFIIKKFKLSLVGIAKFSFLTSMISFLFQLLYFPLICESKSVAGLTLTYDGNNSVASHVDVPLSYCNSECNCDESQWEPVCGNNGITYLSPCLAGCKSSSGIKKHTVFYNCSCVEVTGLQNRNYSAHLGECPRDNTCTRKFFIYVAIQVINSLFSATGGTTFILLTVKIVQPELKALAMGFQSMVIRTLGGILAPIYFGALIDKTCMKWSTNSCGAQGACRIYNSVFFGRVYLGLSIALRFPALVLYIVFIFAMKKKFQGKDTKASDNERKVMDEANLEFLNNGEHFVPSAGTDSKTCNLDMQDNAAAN
# [3] = target: T2, OATP1B1 (Homo sapiens, UniProt Q9Y6L6); assay: Transport kinetics of substrate uptake in OATP1B1-HEK293 cells; format: cell-based; conditions: OATP1B1 mediated uptake
# T2 sequence (Q9Y6L6 1-691): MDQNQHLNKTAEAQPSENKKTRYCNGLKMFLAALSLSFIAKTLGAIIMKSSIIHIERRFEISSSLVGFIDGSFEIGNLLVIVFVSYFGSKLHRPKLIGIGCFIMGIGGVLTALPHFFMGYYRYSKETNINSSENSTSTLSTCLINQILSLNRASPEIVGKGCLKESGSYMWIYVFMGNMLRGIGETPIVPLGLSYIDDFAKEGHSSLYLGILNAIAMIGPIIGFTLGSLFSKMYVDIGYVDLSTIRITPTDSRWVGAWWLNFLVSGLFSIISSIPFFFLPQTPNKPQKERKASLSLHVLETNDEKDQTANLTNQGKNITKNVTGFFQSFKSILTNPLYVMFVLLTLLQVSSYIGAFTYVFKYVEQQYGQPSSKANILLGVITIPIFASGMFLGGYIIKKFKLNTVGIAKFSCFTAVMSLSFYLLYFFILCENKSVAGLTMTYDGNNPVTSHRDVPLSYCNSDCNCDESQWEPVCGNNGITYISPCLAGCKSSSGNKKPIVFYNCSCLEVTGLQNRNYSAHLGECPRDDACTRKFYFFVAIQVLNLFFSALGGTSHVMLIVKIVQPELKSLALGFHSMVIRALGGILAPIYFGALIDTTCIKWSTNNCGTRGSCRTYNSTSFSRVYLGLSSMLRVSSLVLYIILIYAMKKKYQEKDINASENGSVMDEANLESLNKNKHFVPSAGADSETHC
Compound,increase of atorvastatin AUC [1] [fold],Vmax/Km [2] [μL/mg protein/min],Km [3] [µM],Vmax [3] [pmol/mg protein/min]
"CC[C@H]1OC(=O)[C@H](C)[C@@H](O[C@H]2C[C@@](C)(OC)[C@@H](O)[C@H](C)O2)[C@H](C)[C@@H](O[C@@H]2O[C@H](C)C[C@H](N(C)C)[C@H]2O)[C@](C)(OC)C[C@@H](C)C(=O)[C@H](C)[C@@H](O)[C@]1(C)O [clarithromycin, Clarithromycin]",4.5,–,–,–
C[C@]12CC[C@@H]3c4ccc(O)cc4CC[C@H]3[C@@H]1CC[C@@H]2O[C@@H]1O[C@H](C(=O)O)[C@@H](O)[C@H](O)[C@H]1O [estradiol-17β-glucuronide],–,0.86,12.2 ± 5.94,15.44 ± 3.44
